Consider three molecules from ChEMBL document CHEMBL5465560, “Selectivity Literature for EUbOPEN Chemogenomic Library” (2024).

Assay [1] deals with T1, Serine/threonine-protein kinase TBK1 (Homo sapiens) (UniProt Q9UHD2).
T1 sequence (whole entry): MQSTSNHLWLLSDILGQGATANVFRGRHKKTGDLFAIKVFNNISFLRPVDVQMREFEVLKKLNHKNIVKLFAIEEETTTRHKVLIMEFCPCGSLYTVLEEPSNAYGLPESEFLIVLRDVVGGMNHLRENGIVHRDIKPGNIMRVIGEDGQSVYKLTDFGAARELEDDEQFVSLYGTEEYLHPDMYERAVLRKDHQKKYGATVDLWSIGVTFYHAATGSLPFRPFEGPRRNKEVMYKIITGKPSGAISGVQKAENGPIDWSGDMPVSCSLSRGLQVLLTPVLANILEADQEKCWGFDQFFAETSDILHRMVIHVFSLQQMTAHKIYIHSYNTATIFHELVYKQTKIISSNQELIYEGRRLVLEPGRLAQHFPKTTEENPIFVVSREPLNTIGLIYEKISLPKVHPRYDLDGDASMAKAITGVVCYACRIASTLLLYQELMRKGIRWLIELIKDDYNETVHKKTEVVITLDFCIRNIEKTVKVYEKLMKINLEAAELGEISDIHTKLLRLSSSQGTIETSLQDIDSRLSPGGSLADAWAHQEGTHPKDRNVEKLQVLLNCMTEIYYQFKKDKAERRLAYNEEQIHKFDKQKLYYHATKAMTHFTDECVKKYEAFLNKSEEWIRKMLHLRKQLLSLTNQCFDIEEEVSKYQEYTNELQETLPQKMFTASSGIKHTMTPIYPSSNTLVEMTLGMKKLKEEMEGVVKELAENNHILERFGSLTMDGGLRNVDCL
Kind of assay: Selectivity interaction (KinomeScan (DiscoverX)) EUB0000695a TBK1. Particulars: at 100 nM.

In assay [2] the target is T2, Serine/threonine-protein kinase 36 (Homo sapiens) (UniProt Q9NRP7).
T2 sequence (whole entry): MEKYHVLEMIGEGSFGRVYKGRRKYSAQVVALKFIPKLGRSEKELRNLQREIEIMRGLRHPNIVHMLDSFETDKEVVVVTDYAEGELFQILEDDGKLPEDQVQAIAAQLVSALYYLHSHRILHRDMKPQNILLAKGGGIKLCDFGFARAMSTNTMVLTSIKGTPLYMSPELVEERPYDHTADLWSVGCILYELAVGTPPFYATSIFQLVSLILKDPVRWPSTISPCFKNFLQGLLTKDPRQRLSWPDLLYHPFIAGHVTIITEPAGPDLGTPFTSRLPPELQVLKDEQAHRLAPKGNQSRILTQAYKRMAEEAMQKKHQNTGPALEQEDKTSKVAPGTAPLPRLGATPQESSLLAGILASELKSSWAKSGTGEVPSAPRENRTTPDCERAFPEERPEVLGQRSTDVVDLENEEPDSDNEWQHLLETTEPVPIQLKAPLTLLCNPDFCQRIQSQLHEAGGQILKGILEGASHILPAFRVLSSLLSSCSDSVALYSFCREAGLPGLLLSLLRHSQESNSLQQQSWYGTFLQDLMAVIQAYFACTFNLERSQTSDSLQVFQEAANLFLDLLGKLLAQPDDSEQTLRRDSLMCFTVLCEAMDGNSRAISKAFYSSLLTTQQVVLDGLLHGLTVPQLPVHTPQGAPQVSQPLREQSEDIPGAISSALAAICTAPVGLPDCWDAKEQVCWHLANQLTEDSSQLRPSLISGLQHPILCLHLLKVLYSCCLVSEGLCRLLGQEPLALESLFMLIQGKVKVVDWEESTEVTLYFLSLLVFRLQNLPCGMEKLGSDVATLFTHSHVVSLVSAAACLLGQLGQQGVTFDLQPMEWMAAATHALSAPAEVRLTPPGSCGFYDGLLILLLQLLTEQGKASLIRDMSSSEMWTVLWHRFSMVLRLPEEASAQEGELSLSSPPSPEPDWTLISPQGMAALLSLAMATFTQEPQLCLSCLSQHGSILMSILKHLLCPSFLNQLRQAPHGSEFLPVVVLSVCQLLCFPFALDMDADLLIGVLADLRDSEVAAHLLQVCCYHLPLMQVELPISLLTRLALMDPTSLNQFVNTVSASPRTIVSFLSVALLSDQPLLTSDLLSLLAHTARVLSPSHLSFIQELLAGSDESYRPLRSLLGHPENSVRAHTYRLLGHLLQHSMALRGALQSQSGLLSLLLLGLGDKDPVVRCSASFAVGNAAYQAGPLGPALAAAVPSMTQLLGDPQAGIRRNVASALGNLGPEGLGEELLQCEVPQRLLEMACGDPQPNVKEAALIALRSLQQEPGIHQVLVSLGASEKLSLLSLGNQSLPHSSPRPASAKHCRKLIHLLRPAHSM
The experiment in a line: Selectivity interaction (KinomeScan (DiscoverX)) EUB0000618a STK36. Conditions: at 10 µM.

In assay [3] the target is RAC-beta serine/threonine-protein kinase (Homo sapiens) (UniProt P31751). The experiment in a line: Selectivity interaction (KinomeScan (DiscoverX)) EUB0000595a AKT2. Conditions: at 10 µM.
Chain of RAC-beta serine/threonine-protein kinase (Homo sapiens) (P31751 whole entry): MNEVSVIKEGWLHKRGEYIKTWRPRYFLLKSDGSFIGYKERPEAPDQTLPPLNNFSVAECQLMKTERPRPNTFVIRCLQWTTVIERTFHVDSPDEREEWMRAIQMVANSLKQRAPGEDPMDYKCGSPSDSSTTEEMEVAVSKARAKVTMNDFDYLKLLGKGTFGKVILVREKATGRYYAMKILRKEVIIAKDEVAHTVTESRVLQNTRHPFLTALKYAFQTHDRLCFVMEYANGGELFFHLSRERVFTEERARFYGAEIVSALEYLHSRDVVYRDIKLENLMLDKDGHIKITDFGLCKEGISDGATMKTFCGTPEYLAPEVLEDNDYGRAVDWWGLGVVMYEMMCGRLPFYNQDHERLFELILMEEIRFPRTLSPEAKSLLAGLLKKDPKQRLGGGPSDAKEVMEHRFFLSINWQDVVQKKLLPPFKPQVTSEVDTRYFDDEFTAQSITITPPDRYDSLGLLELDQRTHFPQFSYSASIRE

As to `Cc1cc(F)c(C(=O)Nc2cccc(-c3nncn3C(C)C)n2)cc1-n1cnc(C2CC2)c1`, the % of control in assay [1] was 90%. In turn, `O[C@H]1CC[C@H](Nc2ncc3nc(Nc4c(F)cc(F)cc4F)n([C@H]4CCOC4)c3n2)CC1` displayed a % of control in assay [2] of 6.5%. On to `COCC(=O)NC/C=C/c1ccc2ncnc(Nc3ccc(Oc4ccc(C)nc4)c(C)c3)c2c1` [CP-724714], for which the % of control in assay [3] is 100%.
